This note sets out measurements from ChEMBL document CHEMBL2440014, “Design, synthesis and biological evaluation of di-substituted cinnamic hydroxamic acids bearing urea/thiourea unit as potent histone deacetylase inhibitors” (Bioorg Med Chem Lett, 2013).

The structures appear in SMILES notation.

One test deals with HCT-116. Kind of test: Antiproliferative activity against human HCT116 cells after 48 hrs by sulforhodamine B assay. The format is functional. The conditions noted are these: HCT-116, 48 h. In general terms: Sulforhodamine B stains cellular protein and so reports cell mass.
Another test concerns OVCAR-5. Kind of test: Antiproliferative activity against human OVCAR5 cells after 48 hrs by sulforhodamine B assay. To be noted: OVCAR-5, 48 h. It is filed as functional.
The next test relates to NCI-H460. Put plainly: Antiproliferative activity against human NCI-H460 cells after 48 hrs by sulforhodamine B assay. It is filed as functional. The conditions noted are these: NCI-H460, 48 h.
In another test the test system is MCF7. Kind of test: Antiproliferative activity against human MCF7 cells after 48 hrs by sulforhodamine B assay. It is filed as functional. To be noted: MCF7, 48 h.
For a further test, the system named is MDA-MB-435. Put plainly: Antiproliferative activity against human MDA-MB-435 cells after 48 hrs by sulforhodamine B assay. The conditions noted are these: MDA-MB-435, 48 h. The format is functional.
Test [1] has as its target Histone deacetylase (Homo sapiens) (UniProt Q13547+O15379+Q9UBN7+Q92769+Q9UQL6+Q8WUI4+Q9BY41+Q96DB2+P56524+Q9UKV0+Q969S8). To be noted: HeLa, at 1 µM.
Description: Inhibition of HDAC in human HeLa cell nuclear extracts using Fluor de Lys as substrate at 1 uM by fluorescence assay
The next test deals with Histone deacetylase. Put plainly: Inhibition of HDAC in human HeLa cell nuclear extracts using Fluor de Lys as substrate by fluorescence assay. It is filed as protein assay.

One may read the GI50 as the concentration giving 50% growth inhibition. The low end stands for more potent growth inhibition, the high end for less potent growth inhibition. For orientation: inhibition means how much of the control response was suppressed. Lower therefore signals a weak effect. Usually IC50 stands for the midpoint of a concentration-inhibition curve. A higher IC50 goes with weaker potency.

Regarding `CCCCc1nc2cc(/C=C/C(=O)NO)ccc2n1CCN(CC)CC` [PRACINOSTAT], the GI50 in the test with HCT-116 was 240 nM; in the test with OVCAR-5 it was 610 nM; with NCI-H460 it was 220 nM; in the test with MCF7, 170 nM; in the test with MDA-MB-435, 480 nM.
With `CCCCCCNC(=O)Nc1cc(/C=C/C(=O)NO)ccc1SCCN(CC)CC`, the inhibition in test [1] came to 79.6%.
On to `CCCCCCNC(=O)Nc1cc(/C=C/C(=O)NO)ccc1OCCN(CC)CC`, for which the IC50 against Histone deacetylase is 304 nM. In test [1], this compound showed an inhibition of 87.5%.
`CCCCCNC(=O)Nc1cc(/C=C/C(=O)NO)ccc1OCCN(CC)CC` registered an IC50 against Histone deacetylase of 186 nM. Besides, the GI50 was 470 nM in the test on HCT-116; 1340 nM with OVCAR-5; 870 nM in the test on NCI-H460; 290 nM with MCF7; 830 nM in the test on MDA-MB-435. In test [1], this compound registered an inhibition of 88.9%.
On to `CCCCCNC(=O)Nc1cc(/C=C/C(=O)NO)ccc1SCCN(CC)CC`, for which the IC50 on Histone deacetylase was determined as 206 nM. Moreover, the GI50 came to 560 nM in the test with HCT-116; 1800 nM in the test with OVCAR-5; 940 nM in the test on NCI-H460; 400 nM in the test with MCF7; 990 nM in the test with MDA-MB-435. In addition, the inhibition in test [1] is 84.2%.
`CCCNC(=S)Nc1cc(/C=C/C(=O)NO)ccc1SCCN(CC)CC`: the inhibition in test [1] was 76.2%.
In the case of `CCCCCCNC(=S)Nc1cc(/C=C/C(=O)NO)ccc1OCCN(CC)CC`, the IC50 against Histone deacetylase was 187 nM. Moreover, the inhibition in test [1] is 87.4%.
In the same order, the values of `CCCCCCCNC(=O)Nc1cc(/C=C/C(=O)NO)ccc1OCCN(CC)CC` are 410 nM and 83.6%.
On Histone deacetylase, `CCCNC(=O)Nc1cc(/C=C/C(=O)NO)ccc1OCCN(CC)CC` returned an IC50 of 234 nM. The inhibition in test [1] was 80%.
The like results for `CCCNC(=S)Nc1cc(/C=C/C(=O)NO)ccc1OCCN(CC)CC` were, in that order, 210 nM and 82.9%.
Regarding `CCCCCCCNC(=S)Nc1cc(/C=C/C(=O)NO)ccc1OCCN(CC)CC`, the inhibition in test [1] is 69.8%.
Take `CCCCNC(=O)Nc1cc(/C=C/C(=O)NO)ccc1SCCN(CC)CC`: the IC50 against Histone deacetylase is 172 nM. Besides, the GI50 in the test with HCT-116 was determined as 590 nM; in the test on OVCAR-5, 1750 nM; with NCI-H460 it was 1550 nM; with MCF7, 430 nM; in the test with MDA-MB-435, 1500 nM. Besides, in test [1], the inhibition was found to be 84.5%.
Compound `CCCNC(=O)Nc1cc(/C=C/C(=O)NO)ccc1SCCN(CC)CC` yielded an IC50 on Histone deacetylase of 198 nM. Further, the inhibition in test [1] was found to be 82.7%.
With `O=C(CCCCCCC(=O)Nc1ccccc1)NO` [VORINOSTAT], the GI50 came to 940 nM in the test on HCT-116, 450 nM with MCF7 and 880 nM with MDA-MB-435.
`CCCCCNC(=S)Nc1cc(/C=C/C(=O)NO)ccc1SCCN(CC)CC` returned an inhibition in test [1] of 73.8%.
On the same count and under the same terms, under `CCCCNC(=O)Nc1cc(/C=C/C(=O)NO)ccc1OCCN(CC)CC` stands 80.7%; under `CCCCNC(=S)Nc1cc(/C=C/C(=O)NO)ccc1SCCN(CC)CC`, 73.9%.
For the compound `CCCCCNC(=S)Nc1cc(/C=C/C(=O)NO)ccc1OCCN(CC)CC`, on Histone deacetylase, the IC50 amounted to 216 nM. For the same compound, the GI50 with HCT-116 was 720 nM; in the test on OVCAR-5, 1560 nM; in the test with NCI-H460, 1080 nM; in the test on MCF7, 380 nM; in the test with MDA-MB-435 it was 1180 nM. Also, the inhibition in test [1] came out at 90.5%.
In turn, `CCCCNC(=S)Nc1cc(/C=C/C(=O)NO)ccc1OCCN(CC)CC` returned an IC50 against Histone deacetylase of 130 nM. The GI50 with HCT-116 was determined as 350 nM; in the test on OVCAR-5 it was 1120 nM; in the test on NCI-H460, 480 nM; with MCF7, 220 nM; in the test with MDA-MB-435, 510 nM. Also, in test [1], the inhibition was 88%.
As to `CCCCCCNC(=S)Nc1cc(/C=C/C(=O)NO)ccc1SCCN(CC)CC`, in test [1], the inhibition was 72.2%.
`CCCCCCCNC(=O)Nc1cc(/C=C/C(=O)NO)ccc1SCCN(CC)CC` returned an inhibition in test [1] of 48.7%.
Regarding `CCCCCCCNC(=S)Nc1cc(/C=C/C(=O)NO)ccc1SCCN(CC)CC`, the inhibition in test [1] was 62.4%.
